Experimental data published in patent publication US10513694B2, “Thienopyrrole compounds and uses thereof” (PROMEGA CORPORATION, priority 2015, dated 2019).

Assays:
Nluc [1] = target: T1, Nluc (Oplophorus gracilirostris, UniProt Q9GV45, A31E/A60N/A81I/F95D/I117V/K70R/L54V/L99Q/M102K/N193R/P142E/Q151K/Q38R/Q45L/V71I/Y165I); experiment: Multiplex RealTime-Glo / Caspase-Glo 3/7 in A549 cells; assay type: cell-based; set-up: purchased Promega Corporation; conditions: final, 1 hr
Description: B) A549 cells were plated at 1,000 cells/well in 20 μL F12K media into wells of a Corning 3570 plate (n-4) and incubated overnight. Then, REALTIME-GLO™ MT Cell Viability assay reagents (Promega Corporation) were added to the wells as a 2× solution in 20 μL media. The reaction was incubated for 1 hr. 40 μL of a titration of JRW-0013 or JRW-0147 in CASPASE-GLO® 3/7 assay reagent (Promega Corporation) at 2× concentrations was added. The reactions were incubated at RT, and luminescence was determined at 1 hr.

[2] = target: T2, purified Nluc (extracellular); Nluc-HALOTAG fusion protein (intracellular) (Oplophorus gracilirostris, UniProt Q9GV45, A31E/A60N/A81I/F95D/I117V/K70R/L54V/L99Q/M102K/N193R/P142E/Q151K/Q38R/Q45L/V71I/Y165I); experiment: Inhibition of extracellular luciferase activity and enhancement of intracellular BRET; assay type: cell-based; conditions: HEK293 Nluc-HALOTAG + NANOBRET 618; 10 ng/mL extracellular purified Nluc; 2 hrs
T2 construct: expressed in transfected cells; host or cells: HEK293 (Nluc-HaloTag); purified Nluc added from outside
Description: HEK293 were transiently transfected with Nluc-HALOTAG fusion protein to orient Nluc-HALOTAG inside the cell. 24 hrs post-transfection, cells were labeled with NANOBRET 618 ligand to simulate specific intracellular BRET. Cells were then treated 10 ng/mL purified Nluc to simulate spurious extracellular luminescence. Cells were exposed to a compound response curve of the thienopyrrole compounds, JRW-0013, JRW-0051, JRW-0147, and JRW-0187, for 2 hrs. 10 μM furimazine was added, and the BRET ratio 610/450 nm was measured.

Nluc luciferase = Nluc luciferase (Oplophorus gracilirostris, UniProt Q9GV45, A31E/A60N/A81I/F95D/I117V/K70R/L54V/L99Q/M102K/N193R/P142E/Q151K/Q38R/Q45L/V71I/Y165I); assay type: cell-based; set-up: expressed in transfected cells; host or cells: HEK293; conditions: HEK293; 10, 30 or 120 minutes
Description: HEK293 cells were transiently transfected with Nluc luciferase to express it cytosolically. Twenty-four hours post-transfection, cells were exposed to a compound response curve of the thienopyrrole compound JRW-0147 or JRW-0013 for 10 minutes, 30 minutes, or 120 minutes. 10 μM furimazine was then added, and luminescence was measured.

UltraGlo luciferase = experiment: Specificity of inhibition of Nluc luciferase: UltraGlo luciferase; assay type: biochemical, firefly; conditions: RT 2 hrs
Description: The following example describes the specificity of disclosed thienopyrrole compounds, JRW-0251, JRW-0344, and JRW-0147, to inhibit Nluc luciferase activity versus firefly luciferase activity, e.g., ULTRAGLO® luciferase. In a Corning 3570 assay plate, a solution containing 1 μM luciferin in Luciferase Detection Reagent (Promega Corporation V865/859) was added to the assay wells. An equal volume of titrations the thienopyrrole compounds, JRW-0251, JRW-0344, and JRW-0147 were then added to the wells. The reactions were incubated at RT for 2 hrs, and luminescence was measured on Tecan M1000 Pro plate reader.

Nluc [3] = target: T1, Nluc; experiment: Multiplex RealTime-Glo / Caspase-Glo 3/7 in DMEM media; assay type: biochemical; set-up: purchased Promega Corporation; conditions: for Avg (luminescence), 1 hour: RealTime-Glo reagent in DMEM + Caspase-Glo 3/7
Description: In a Corning 3570 assay plate, 1× REAL-TIME-GLO™ MT Cell Viability assay reagent was prepared in 40 μL DMEM media (n=3) and incubated overnight. Next, 40 μL of a titration of JRW-0147 or JRW-0344 (2× concentration in CASPASE-GLO® 3/7 Assay Reagent (Promega Corporation)) was added. The reactions were incubated at room temperature, and luminescence determined at 1 hour.

T1 sequence (Q9GV45 28-196 with tags or gaps with the stated changes limits assumed): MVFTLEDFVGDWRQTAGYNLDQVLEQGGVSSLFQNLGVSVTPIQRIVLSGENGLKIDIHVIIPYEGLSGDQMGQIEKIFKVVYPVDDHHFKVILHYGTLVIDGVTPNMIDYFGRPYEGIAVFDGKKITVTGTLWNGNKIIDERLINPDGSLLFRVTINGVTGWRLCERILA
T2 sequence (Q9GV45 28-196 with tags or gaps with the stated changes limits assumed): as above
Sequence of Nluc luciferase (Q9GV45 28-196 with tags or gaps with the stated changes limits assumed): as above

## CCN(C(=O)Cn1c(C(=O)N[C@H]2CC[C@H](C(=O)OC)CC2)cc2sccc21)c1cccc(C)c1 [JRW-0013, trans-methyl-4-(4-(2-(ethyl(m-tolyl)amino)-2-oxoethyl)-4H-thieno[3,2-b]pyrrole-5-carboxamido)cyclohexane-1-carboxylate]
Nluc [1]; Inhibitor 1.73 μM
  Caspase, Avg (luminescence): 12879
Nluc [1]; Inhibitor 2.60 μM
  Caspase, Avg (luminescence): 11813
Nluc [1]; Inhibitor 3.90 μM
  Caspase, Avg (luminescence): 9148
Nluc [1]; Inhibitor 5.85 μM
  Caspase, Avg (luminescence): 8059
Nluc [1]; Inhibitor 8.78 μM
  Caspase, Avg (luminescence): 6703
Nluc [1]; Inhibitor 13.17 μM
  Caspase, Avg (luminescence): 6014
Nluc [1]; Inhibitor 19.75 μM
  Caspase, Avg (luminescence): 5095
Nluc [1]; Inhibitor 29.63 μM
  Caspase, Avg (luminescence): 5132
Nluc [1]; Inhibitor 44.44 μM
  Caspase, Avg (luminescence): 4419
Nluc [1]; Inhibitor 66.67 μM
  Caspase, Avg (luminescence): 4017
Nluc [1]; Inhibitor 100 μM
  Caspase, Avg (luminescence): 3619
[2]
  BRET ratio 610/450 nm across compound dose-response curve (FIGS. 13B-13E): BRET ratio remained constant
Nluc luciferase
  Change in RLUs from cytosolic Nluc (FIG. 16): decrease the RLUs from Nluc in a dose-dependent manner independent of time

## CCN(C(=O)Cn1c(C(=O)N[C@H]2CC[C@H](C(=O)NCCCCCC(=O)O)CC2)cc2sccc21)c1cccc(C)c1 [JRW-0147, 6-(trans-4-(4-(2-(ethyl(m-tolyl)amino)-2-oxoethyl)-4H-thieno[3,2-b]pyrrole-5-carboxamido)cyclohexane-1-carboxamido)hexanoic acid]
Nluc [1]; Inhibitor 1.73 μM
  Caspase, Avg (luminescence): 15580
Nluc [1]; Inhibitor 2.60 μM
  Caspase, Avg (luminescence): 11677
Nluc [1]; Inhibitor 3.90 μM
  Caspase, Avg (luminescence): 9790
Nluc [1]; Inhibitor 5.85 μM
  Caspase, Avg (luminescence): 8013
Nluc [1]; Inhibitor 8.78 μM
  Caspase, Avg (luminescence): 7125
Nluc [1]; Inhibitor 13.17 μM
  Caspase, Avg (luminescence): 5545
Nluc [1]; Inhibitor 19.75 μM
  Caspase, Avg (luminescence): 5302
Nluc [1]; Inhibitor 29.63 μM
  Caspase, Avg (luminescence): 4394
Nluc [1]; Inhibitor 44.44 μM
  Caspase, Avg (luminescence): 4367
Nluc [1]; Inhibitor 66.67 μM
  Caspase, Avg (luminescence): 3427
Nluc [1]; Inhibitor 100 μM
  Caspase, Avg (luminescence): 3389
UltraGlo luciferase
  Inhibition of firefly luciferase activity (Table 3): did not inhibit the firefly luciferase activity
UltraGlo luciferase; [cmpd] 0.1953125 μM
  UltraGlo luciferase, Avg (luminescence): 85561
  UltraGlo luciferase, S/B: 0.99
UltraGlo luciferase; [cmpd] 0.390625 μM
  UltraGlo luciferase, Avg (luminescence): 84087
  UltraGlo luciferase, S/B: 0.97
UltraGlo luciferase; [cmpd] 0.78125 μM
  UltraGlo luciferase, Avg (luminescence): 84072
  UltraGlo luciferase, S/B: 0.97
UltraGlo luciferase; [cmpd] 1.5625 μM
  UltraGlo luciferase, Avg (luminescence): 83668
  UltraGlo luciferase, S/B: 0.97
UltraGlo luciferase; [cmpd] 3.125 μM
  UltraGlo luciferase, Avg (luminescence): 82252
  UltraGlo luciferase, S/B: 0.95
UltraGlo luciferase; [cmpd] 6.25 μM
  UltraGlo luciferase, Avg (luminescence): 83282
  UltraGlo luciferase, S/B: 0.97
UltraGlo luciferase; [cmpd] 12.5 μM
  UltraGlo luciferase, Avg (luminescence): 83291
  UltraGlo luciferase, S/B: 0.97
UltraGlo luciferase; [cmpd] 25 μM
  UltraGlo luciferase, Avg (luminescence): 84033
  UltraGlo luciferase, S/B: 0.97
UltraGlo luciferase; [cmpd] 50 μM
  UltraGlo luciferase, Avg (luminescence): 81106
  UltraGlo luciferase, S/B: 0.94
UltraGlo luciferase; [cmpd] 100 μM
  UltraGlo luciferase, Avg (luminescence): 80636
  UltraGlo luciferase, S/B: 0.93
UltraGlo luciferase; [cmpd] 200 μM
  UltraGlo luciferase, Avg (luminescence): 78035
  UltraGlo luciferase, S/B: 0.90
Nluc [3]; [cmpd] final 0.09765625 μM
  S/B, 1 hour: 0.84
  Avg (luminescence), 1 hour: 117067
Nluc [3]; [cmpd] final 0.1953125 μM
  S/B, 1 hour: 0.89
  Avg (luminescence), 1 hour: 124500
Nluc [3]; [cmpd] final 0.390625 μM
  S/B, 1 hour: 0.85
  Avg (luminescence), 1 hour: 117833
Nluc [3]; [cmpd] final 0.78125 μM
  S/B, 1 hour: 0.77
  Avg (luminescence), 1 hour: 106867
Nluc [3]; [cmpd] final 1.5625 μM
  S/B, 1 hour: 0.47
  Avg (luminescence), 1 hour: 65173
Nluc [3]; [cmpd] final 3.125 μM
  S/B, 1 hour: 0.32
  Avg (luminescence), 1 hour: 45167
Nluc [3]; [cmpd] final 6.25 μM
  S/B, 1 hour: 0.20
  Avg (luminescence), 1 hour: 27817
Nluc [3]; [cmpd] final 12.5 μM
  S/B, 1 hour: 0.12
  Avg (luminescence), 1 hour: 17293
Nluc [3]; [cmpd] final 25 μM
  S/B, 1 hour: 0.08
  Avg (luminescence), 1 hour: 10699
Nluc [3]; [cmpd] final 50 μM
  S/B, 1 hour: 0.06
  Avg (luminescence), 1 hour: 8136
Nluc [3]; [cmpd] final 100 μM
  S/B, 1 hour: 0.05
  Avg (luminescence), 1 hour: 6568
[2]
  BRET ratio 610/450 nm across compound dose-response curve (FIGS. 13B-13E): intracellular BRET ratio was enhanced
Nluc luciferase
  Change in RLUs from cytosolic Nluc (FIG. 16): no significant change in RLUs from Nluc

## CCN(C(=O)Cn1c(C(=O)N[C@H]2CC[C@H](C(=O)NCCCCCCS(=O)(=O)[O-])CC2)cc2sccc21)c1cccc(C)c1.[Na+] [JRW-0344, Sodium 6-(trans-4-(4-(2-(ethyl(m-tolyl)amino)-2-oxoethyl)-4H-thieno[3,2-b]pyrrole-5-carboxamido)cyclohexane-1-carboxamido)hexane-1-sulfonate]
UltraGlo luciferase
  Inhibition of firefly luciferase activity (Table 3): did not inhibit the firefly luciferase activity
UltraGlo luciferase; [cmpd] 0.1953125 μM
  UltraGlo luciferase, Avg (luminescence): 83526.33
  UltraGlo luciferase, S/B: 1.00
UltraGlo luciferase; [cmpd] 0.390625 μM
  UltraGlo luciferase, Avg (luminescence): 82945.67
  UltraGlo luciferase, S/B: 1.00
UltraGlo luciferase; [cmpd] 0.78125 μM
  UltraGlo luciferase, Avg (luminescence): 82135.67
  UltraGlo luciferase, S/B: 0.99
UltraGlo luciferase; [cmpd] 1.5625 μM
  UltraGlo luciferase, Avg (luminescence): 81368.33
  UltraGlo luciferase, S/B: 0.98
UltraGlo luciferase; [cmpd] 3.125 μM
  UltraGlo luciferase, Avg (luminescence): 80134.33
  UltraGlo luciferase, S/B: 0.96
UltraGlo luciferase; [cmpd] 6.25 μM
  UltraGlo luciferase, Avg (luminescence): 83064.33
  UltraGlo luciferase, S/B: 1.00
UltraGlo luciferase; [cmpd] 12.5 μM
  UltraGlo luciferase, Avg (luminescence): 82454.67
  UltraGlo luciferase, S/B: 0.99
UltraGlo luciferase; [cmpd] 25 μM
  UltraGlo luciferase, Avg (luminescence): 83084.00
  UltraGlo luciferase, S/B: 1.00
UltraGlo luciferase; [cmpd] 50 μM
  UltraGlo luciferase, Avg (luminescence): 81805.00
  UltraGlo luciferase, S/B: 0.98
UltraGlo luciferase; [cmpd] 100 μM
  UltraGlo luciferase, Avg (luminescence): 79847.67
  UltraGlo luciferase, S/B: 0.96
UltraGlo luciferase; [cmpd] 200 μM
  UltraGlo luciferase, Avg (luminescence): 77230.33
  UltraGlo luciferase, S/B: 0.93
Nluc [3]; [cmpd] final 0.09765625 μM
  S/B, 1 hour: 0.71
  Avg (luminescence), 1 hour: 112533
Nluc [3]; [cmpd] final 0.1953125 μM
  S/B, 1 hour: 0.80
  Avg (luminescence), 1 hour: 126333
Nluc [3]; [cmpd] final 0.390625 μM
  S/B, 1 hour: 0.88
  Avg (luminescence), 1 hour: 138900
Nluc [3]; [cmpd] final 0.78125 μM
  S/B, 1 hour: 0.61
  Avg (luminescence), 1 hour: 95993
Nluc [3]; [cmpd] final 1.5625 μM
  S/B, 1 hour: 0.41
  Avg (luminescence), 1 hour: 65097
Nluc [3]; [cmpd] final 3.125 μM
  S/B, 1 hour: 0.21
  Avg (luminescence), 1 hour: 33523
Nluc [3]; [cmpd] final 6.25 μM
  S/B, 1 hour: 0.12
  Avg (luminescence), 1 hour: 19560
Nluc [3]; [cmpd] final 12.5 μM
  S/B, 1 hour: 0.10
  Avg (luminescence), 1 hour: 15547
Nluc [3]; [cmpd] final 25 μM
  S/B, 1 hour: 0.06
  Avg (luminescence), 1 hour: 9761
Nluc [3]; [cmpd] final 50 μM
  S/B, 1 hour: 0.04
  Avg (luminescence), 1 hour: 6790
Nluc [3]; [cmpd] final 100 μM
  S/B, 1 hour: 0.03
  Avg (luminescence), 1 hour: 5523
